# According to patent US20250041298A1, “CDK4 INHIBITOR FOR THE TREATMENT OF CANCER” (Pfizer Inc., priority 2021, published 2025):
# Where “and” joins values, the source holds several entries; their conditions need not be identical. Identical values can stand only once.
# Legend:
# [1] = Phase 1/1b clinical trial: safety (DLTs, treatment-emergent adverse events); format: in vivo, human
# Method: As used herein, “dose limiting toxicity” (DLT) refers to the dosage of PF-07220060 that is contraindicative of a further increase in dosage.
# An ongoing open-label, nonrandomized, dose-finding Phase 1/1b Study investigating the safety, tolerability, PK, and PD of PF-07220060 administered as a single agent and when administered in combination with endocrine therapy.
# Adverse events of the patients dosed with PF-07220060 in the Phase 1/1b clinical trial were evaluated using the National Cancer Institute Common Terminology Criteria for Adverse Events (NCI CTCAE) version 4.03.
# [2] = tested on: HR+, HER2+ BT474 breast cancer spheroids; test: Multicellular tumor spheroid growth inhibition (SGI), BT474; format: cell-based, human
# Method: The purpose of this example was to evaluate the combination effect of PF-07220060 and endocrine therapy in multicellular tumor spheroid growth inhibition (SGI). To model the characteristics and cellular behavior of human tumors, the activity of PF-07220060 was evaluated in three dimensional MCTS models of HR+ breast cancer and AR+ prostate cancer following PF-07220060 treatment as a single agent and in combination with fulvestrant • 1) in HR+, HER2-T47D breast cancer spheroids. • 2) in HR+, HER2+BT474 breast cancer spheroids, • 3) in BT474 spheroids, and • 4) in AR+ prostate carcinoma cell line (LNCaP) prostate cancer spheroids. Spheroids were treated with increasing concentrations of 100, 300, or 1000 nM PF-07220060 and compared to palbociclib at the clinically relevant concentration of 30 nM. Single agent PF-07220060 inhibited spheroid growth in a dose-dependent manner, with highest efficacy (86% SGI over the duration of treatment with 1000 nM) shown in the T47D BC spheroid model (Table 1). Combining 100 nM PF-07220060 with 1 nM fulvestrant in T47D cells increased SGI to 96% compared to either single agent alone (57 to 67% SGI with 100 nM PF-07220060 or 79% SGI with fulvestrant) (Table 1). BT474 spheroids were relatively less sensitive to PF-07220060 resulting in 52% SGI at 1000 nM.
# [3] = tested on: advanced or metastatic solid tumors; test: Phase 1/1b clinical trial: tumor response (best overall response, RECIST 1.1); format: in vivo, human
# Text: The present therapy may result in a complete response (CR), partial response (PR), progressive disease (PD), or stable disease (SD) in patients. Bioimaging can be used to evaluate the level of response to the therapy. Cytology and histology may also be used as needed (e.g., to locate any residual lesions). In some embodiments, the various levels of response can be evaluated in accordance with Table 1 below.
# • For Part 1: participant must have evaluable lesion (including skin or bone lesion only). • For Part 2B and Part 2C: participants must have measurable disease as defined per RECIST (Response Evaluation Criteria in Solid Tumors) version 1.1 (Eisenhauer et al., European Journal of Cancer, 2009, 45 (2): 228-47). Tumor lesions previously irradiated or subjected to locoregional therapy will only be deemed measurable if progression at the treated site after completion of therapy is clearly documented.
# [4] = 66 participants dosed in Part 1A, 1B, 1C and 1D
# [5] = Part 1D, single agent 400 mg BID food cohort
# [6] = Part 1D, single agent 400 mg BID food cohort, 6 participants
# [7] = across all dose levels, by label
# [8] = across all dose levels, Part 1A
# [9] = any grade, all dose levels, Part 1A, 1B, 1C, by label
# [10] = any grade, all dose levels, Part 1A, 1C, by label
# [11] = overall, 66 participants dosed in Part 1
# [12] = Part 1D food effect cohort (n = 6)
# [13] = Total, all cohorts (27 patients)
# [14] = Total, all cohorts (35 patients)
# [15] = confirmed best overall response, Part 1D food effect cohort (n = 6)
# [16] = confirmed best overall response, Total Part 1A (single agent), 1B, 1C, 1B + 1C, by label
# [17] = confirmed best overall response, Total, all cohorts (n = 70)
structure (smiles),measurement,setting,value
"CC(C)n1c(C(C)(C)O)nc2c(F)cc(-c3nc(N[C@@H]4CCOC[C@H]4O)ncc3Cl)cc21 [PF-07220060, 1,5-anhydro-3-({5-chloro-4-[4-fluoro-2-(2-hydroxypropan-2-yl)-1-(propan-2-yl)-1H-benzimidazol-6-yl]pyrimidin-2-yl}amino)-2,3-dideoxy-D-threo-pentitol]","participants with any treatment-related TEAE, %",[1]; 66 participants dosed in Part 1,81.8%
same,number of all-causality TEAEs,[1]; [4],375
same,"participants with all-causality TEAEs, %",[1]; [4],89.4%
same,"diarrhoea, Grade 3 treatment-related TEAE",[1]; Part 1A,5.9%
same,"thrombocytopenia, Grade 3 treatment-related TEAE",[1]; Part 1A,5.9%
same,"participants with treatment-related TEAE, %","[1]; Part 1A (single agent, 34), 1B (13), 1C (13), by label",79.4%
same,participants with Grade 5 all-causality TEAE (respiratory failure; unrelated to study drug),"[1]; Part 1A, 400 mg BID group",One
same,Grade 4 / Grade 5 all-causality TEAEs,"[1]; Part 1A, 1B, 1C, by label",No Grade 4 TEAEs were reported
same,Grade 4 / Grade 5 treatment-related TEAEs,"[1]; Part 1A, 1B, 1C, by label",no Grade 4 or Grade 5 treatment-related TEAEs reported
same,"anaemia, Grade 3 treatment-related TEAE","[1]; Part 1A, 1B, 1C, by label",5.9%
same,"leukopenia, Grade 3 treatment-related TEAE","[1]; Part 1A, 1B, 1C, by label",5.9%
same,"neutropenia, Grade 3 treatment-related TEAE","[1]; Part 1A, 1B, 1C, by label",14.7%
same,"participants with Grade 3 treatment-related TEAEs, %","[1]; Part 1A, 1B, 1C, by label",26.5%
same,"Grade 3, 4 or 5 treatment-related TEAEs",[1]; [5],"No Grade 3, 4 nor 5 treatment-related TEAEs were reported"
same,Grade 3 or 5 TEAEs,[1]; [5],No Grade 3 or 5 TEAEs were reported
same,"diarrhoea, all-causality TEAE",[1]; [5],50.0%
same,"diarrhoea, treatment-related TEAE",[1]; [5],50.0%
same,"leukopenia, all-causality TEAE",[1]; [5],50.0%
same,"leukopenia, treatment-related TEAE",[1]; [5],50.0%
same,"neutropenia, all-causality TEAE",[1]; [5],50.0%
same,"neutropenia, treatment-related TEAE",[1]; [5],50.0%
same,participants with Grade 4 all-causality TEAE (respiratory failure),[1]; [5],One
same,"participants with TEAEs, %",[1]; [6],66.7%
same,"participants with treatment-related TEAEs, %",[1]; [6],66.7%
same,"anaemia, Grade 3 or higher (1A) / Grade 3 (1B, 1C) all-causality TEAE",[1]; [7],5.9%
same,"leukopenia, Grade 3 or higher (1A) / Grade 3 (1B, 1C) all-causality TEAE",[1]; [7],5.9%
same,"neutropenia, Grade 3 or higher (1A) / Grade 3 (1B, 1C) all-causality TEAE",[1]; [7],14.7%
same,number of Grade 3 or higher (Part 1A) / Grade 3 (Part 1C) all-causality TEAEs,[1]; [7],15
same,"COVID-19, Grade 3 or higher all-causality TEAE",[1]; [8],5.9%
same,"aspartate aminotransferase increased, Grade 3 or higher all-causality TEAE",[1]; [8],5.9%
same,"diarrhoea, Grade 3 or higher all-causality TEAE",[1]; [8],5.9%
same,"syncope, Grade 3 or higher all-causality TEAE",[1]; [8],5.9%
same,"thrombocytopenia, Grade 3 or higher all-causality TEAE",[1]; [8],5.9%
same,"participants with all-causality TEAEs, %","[1]; all dose levels, Part 1A (single agent, 34), 1B (13), 1C (13), by label",94.1%
same,"aspartate aminotransferase increased, all-causality TEAE","[1]; any grade, all dose levels, Part 1A",20.6%
same,"anaemia, all-causality TEAE",[1]; [9],35.3%
same,"diarrhoea, all-causality TEAE",[1]; [9],35.3%
same,"diarrhoea, treatment-related TEAE",[1]; [9],23.5%
same,"fatigue, treatment-related TEAE",[1]; [9],11.8%
same,"leukopenia, all-causality TEAE",[1]; [9],35.3%
same,"nausea, all-causality TEAE",[1]; [9],29.4%
same,"nausea, treatment-related TEAE",[1]; [9],26.5%
same,"neutropenia, all-causality TEAE",[1]; [9],41.2%
same,"neutropenia, treatment-related TEAE",[1]; [9],41.2%
same,"vomiting, all-causality TEAE",[1]; [9],20.6%
same,"anaemia, treatment-related TEAE",[1]; [10],29.4%
same,"leukopenia, treatment-related TEAE",[1]; [10],29.4%
same,"thrombocytopenia, treatment-related TEAE",[1]; [10],20.6%
same,"vomiting, treatment-related TEAE",[1]; [10],14.7%
same,"participants who experienced DLTs, %","[1]; of the 55 evaluable participants, all cohorts, as of Sep. 2, 2022",7.3%
same,"anemia, treatment-related TEAE",[1]; [11],21.2%
same,"diarrhea, treatment-related TEAE",[1]; [11],33.3%
same,"leukopenia, treatment-related TEAE",[1]; [11],30.3%
same,"nausea, treatment-related TEAE",[1]; [11],27.3%
same,"neutropenia, treatment-related TEAE",[1]; [11],40.9%
same,participants with DLT of Grade 3 neutropenia,[1]; single agent 200 mg BID cohort,One
same,participants with DLT of Grade 3 thrombocytopenia,[1]; single agent 500 mg BID cohort,Two
same,SGI,[2]; 100 nM single agent,9%
same,SGI,[2]; 300 nM single agent,16% and 26% and 20%
same,SGI,[2]; 1000 nM single agent,52%
same,"Objective Response (CR + PR) for Patients without Breast Cancer, %",[3]; Part 1D food effect cohort (5 patients),(20.0) %
same,"Disease Control (CR + PR + SD + Non-CR/Non-PD), %",[3]; [12],(50.0) %
same,"Objective Response (CR + PR), %",[3]; [12],(16.7) %
same,"Clinical Benefit Response, %","[3]; Patients with Breast Cancer (with Measurable Disease at Baseline), Total Part 1A (single agent), 1B, 1C, 1B + 1C, by label",(40.0) %
same,"Clinical Benefit Response, %","[3]; Patients with Breast Cancer (with Measurable Disease at Baseline), Total, all cohorts (27 patients)",(48.1) %
same,"Clinical Benefit Response, %","[3]; Patients with Breast Cancer, Total Part 1A (single agent), 1B, 1C, 1B + 1C, by label",(25.0) %
same,"Clinical Benefit Response, %","[3]; Patients with Breast Cancer, Total, all cohorts (35 patients)",(40.0) %
same,"Objective Response (CR + PR) for Patients with Breast Cancer (with Measurable Disease at Baseline), %",[3]; [13],(22.2) %
same,"Objective Response (CR + PR) for Patients with prior CDK4/6 inhibitor (with Measurable Disease at Baseline), %",[3]; [13],(22.2) %
same,"Objective Response (CR + PR) for Patients with Breast Cancer, %",[3]; [14],(17.1) %
same,"Objective Response (CR + PR) for Patients without Breast Cancer, %",[3]; [14],(2.9) %
same,"Disease Control (CR + PR + SD + Non-CR/Non-PD), %","[3]; Total, all cohorts (n = 70)",(65.7) %
same,"Objective Response (CR + PR), %","[3]; Total, all cohorts (n = 70)",(10.0) %
same,"Disease Control (CR + PR + SD + Non-CR/Non-PD), %","[3]; Total, all cohorts (n = 70), listed as PF-06873600",65.7%
same,"Clinical Benefit Response, %","[3]; all evaluable patients, Part 1D food effect cohort (n = 6)",(33.3) %
same,"Clinical Benefit Response, %","[3]; all evaluable patients, Total Part 1A (single agent), 1B, 1C, 1B + 1C, by label",(26.3) %
same,"Clinical Benefit Response, %","[3]; all evaluable patients, Total, all cohorts (n = 70)",(34.3) %
same,"Non-CR/Non-PD, %",[3]; [15],(16.7) %
same,"Not evaluable (NE), %",[3]; [15],(16.7) %
same,"Partial response (PR), %",[3]; [15],(16.7) %
same,"Progressive disease (PD), %",[3]; [15],(33.3) %
same,"Stable disease (SD), %",[3]; [15],(16.7) %
same,"Non-CR/Non-PD, %",[3]; [16],(10.5) %
same,"Not evaluable (NE), %",[3]; [16],(23.7) %
same,"Progressive disease (PD), %",[3]; [16],(15.8) %
same,"Stable disease (SD), %",[3]; [16],(47.4) %
same,"Complete response (CR), %",[3]; [17],(1.4) %
same,"Non-CR/Non-PD, %",[3]; [17],(11.4) %
same,"Not evaluable (NE), %",[3]; [17],(14.3) %
same,"Partial response (PR), %",[3]; [17],(8.6) %
same,"Progressive disease (PD), %",[3]; [17],(18.6) %
same,"Stable disease (SD), %",[3]; [17],(44.3) %
